# Results from PubChem BioAssay AID434957 (The Scripps Research Institute Molecular Screening Center, 2010).
# Active and inactive are the calls of the source.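 Rule for the calls: active = IC50, the dose halving KLF5 reporter signal, at most 10 µM; inactive = IC50 above 10 µM or none.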
# Tested on: DLD-1 KLF5 promoter luciferase reporter, luminescence
# Assay: KLF5 promoter reporter inhibitors, SAR follow-up, luminescence, DLD-1 cells, round 1 (AID 434957)
row,IC50,Compound
1,> 39.8 µM (inactive),O=C(COc1ccccc1)Nc1ccc2nn(-c3cccc(Cl)c3)nc2c1
2,> 39.8 µM (inactive),COc1ccc(-n2nc3cc(C)c(NC(=O)C(C)C)cc3n2)cc1
3,> 39.8 µM (inactive),Nc1cc2nn(-c3ccccc3)nc2cc1Cl
4,> 39.8 µM (inactive),O=C(Nc1cc2nn(-c3ccccc3)nc2cc1Cl)C1COc2ccccc2C1 (stereo unspecified)
5,> 39.8 µM (inactive),Cc1ccc(OCC(=O)Nc2ccc3nn(-c4cccc(C(F)(F)F)c4)nc3c2)cc1C
6,26.3 µM (inactive),CC(C)C(=O)Nc1ccc2nn(-c3ccc(Cl)cc3)nc2c1
7,4.56 µM,CC(C)(C)C(=O)Nc1ccc2nn(-c3ccc(F)cc3)nc2c1
8,> 39.8 µM (inactive),COc1ccc(-n2nc3ccc(NC(=O)C(C)(C)C)cc3n2)cc1
9,> 39.8 µM (inactive),Cc1ccc(-n2nc3ccc(NC(=O)COc4ccc(C)c(C)c4)cc3n2)cc1
10,> 39.8 µM (inactive),COc1ccc(-n2nc3ccc(NC(=O)C4CCN(S(=O)(=O)c5ccc(Cl)cc5)CC4)cc3n2)cc1
11,> 39.8 µM (inactive),Cc1ccc(-n2nc3cc(Cl)c(NC(=O)c4cccnc4)cc3n2)cc1
12,3.18 µM,CC(C)(C)C(=O)Nc1ccc2nn(-c3ccccc3)nc2c1
13,7.96 µM,O=C(Cc1ccccc1)Nc1cc2nn(-c3ccccc3)nc2cc1Cl

# The remaining lines, values behind:
row,Compound,IC50
1,CC(=O)Nc1ccc2nc(Nc3nc4ccc(F)cc4s3)sc2c1,> 39.8 µM (inactive)
2,CC1(C)CC(=O)c2sc(NC(=O)c3ccc4ncsc4c3)nc2C1,> 39.8 µM (inactive)
3,CC(=O)c1sc(NC(=O)c2ccc3ncsc3c2)nc1C,> 39.8 µM (inactive)
4,CC(C)(C)c1ccc(-c2noc(CCC(=O)Nc3ccncc3)n2)cc1,0.107 µM
5,CC(NC(=O)c1ccccc1)c1nc(-c2ccc(C(C)(C)C)cc2)no1 (stereo unspecified),> 39.8 µM (inactive)
6,CC(C)(C)c1ccc(-c2noc(CCC(=O)Nc3ccc(N4CCOCC4)nc3)n2)cc1,0.267 µM
7,CC(C)(C)c1ccc(-c2coc(CCC(=O)Nc3ccccn3)n2)cc1,19.4 µM (inactive)
8,CC(C)(C)c1ccc(-c2noc(CCC(=O)Nc3ccccc3)n2)cc1,0.116 µM
9,CC(C)(C)c1ccc(-c2noc(CCCC(=O)Nc3ccccc3Cl)n2)cc1,0.806 µM
10,CC(=O)c1sc(NC(=O)c2ccc3ncsc3c2)nc1-c1ccccc1,> 39.8 µM (inactive)
11,CC(C)(C)c1ccc(-c2noc(CCC(=O)NCc3ccccc3)n2)cc1,3.57 µM
12,CCOc1ccc(NC(=O)CCc2nc(-c3ccc(C(C)(C)C)cc3)no2)cc1,0.285 µM
13,CC(C)(C)c1ccc(-c2noc(CCc3nc4ccccc4[nH]3)n2)cc1,> 39.8 µM (inactive)
14,CCOc1ccc2nc(Nc3nc4ccc(F)cc4s3)sc2c1,> 39.8 µM (inactive)
15,CC(C)(C)c1ccc(-c2noc(CCC(=O)Nc3ccccn3)n2)cc1,0.159 µM
16,Cc1nc(NC(=O)c2ccc3ncsc3c2)sc1C(=O)N(C)C,> 39.8 µM (inactive)
17,CS(=O)(=O)c1ccc2nc(Nc3nc4ccc(F)cc4s3)sc2c1,> 39.8 µM (inactive)
18,CCNC(=O)c1sc(NC(=O)c2ccc3ncsc3c2)nc1C,> 39.8 µM (inactive)
19,COc1ccc2nc(Nc3nc4ccc(F)cc4s3)sc2c1,> 39.8 µM (inactive)
20,Cc1cccc(NC(=O)CCc2nc(-c3ccc(C(C)(C)C)cc3)no2)c1,0.229 µM
21,CCNC(=O)c1ccc2nc(Nc3nc4ccc(F)cc4s3)sc2c1,0.0562 µM
22,CN(C)C(=O)c1ccc2nc(Nc3nc4ccc(F)cc4s3)sc2c1,0.0131 µM
23,CC(C)c1ccc2nc(Nc3nc4ccc(F)cc4s3)sc2c1,> 39.8 µM (inactive)
